Data taken from patent publication US9963445B2, “Chemical compounds” (SYNGENTA PARTICIPATIONS AG, priority 2013, dated 2018).

Tests used:
Assay type in all cases: in vivo
Echinochloa crus-galli [1] = assay: Pre-emergence herbicidal activity, glasshouse pot test; settings: pre-emergence spray, rate 1000 g/ha, evaluated after 13 days, scale 0-5
Method in brief: (§1)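 Test species were sown in pots and, after one day under controlled glasshouse conditions, treated with an aqueous spray of the active ingredient in acetone/water containing 0.5% Tween 20. Evaluation followed 13 days later, scoring plant damage from 0 (none) to 5 (total).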

Amaranthus retroflexus [2] = assay: as above; settings: pre-emergence spray, rate 1000 g/ha, evaluated after 13 days, scale 0-5
Method in brief: as §1

zea mays [3] = assay: as above; settings: pre-emergence spray, rate 1000 g/ha, evaluated after 13 days, scale 0-5
Method in brief: as §1

Abutilon theophrasti [4] = assay: as above; settings: pre-emergence spray, rate 1000 g/ha, evaluated after 13 days, scale 0-5
Method in brief: as §1

Setaria faberi [5] = assay: as above; settings: pre-emergence spray, rate 1000 g/ha, evaluated after 13 days, scale 0-5
Method in brief: as §1

Alopecurus myosuroides [6] = assay: as above; settings: pre-emergence spray, rate 1000 g/ha, evaluated after 13 days, scale 0-5
Method in brief: as §1

Echinochloa crus-galli [7] = assay: Post-emergence herbicidal activity, glasshouse pot test; parameters: key: 0 = no damage to plant, 5 = total damage to plant; settings: Application post-emergence, rate 1000 g/ha, evaluated after 13 days
Method in brief: (§2)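 Test solution: technical active ingredient in acetone/water (50:50) containing 0.5% Tween 20, applied as an aqueous spray to 8-day-old plants. Evaluation at 13 days, 0–5 damage scale.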

Amaranthus retroflexus [8] = assay: as above; parameters: key: 0 = no damage to plant, 5 = total damage to plant; settings: Application post-emergence, rate 1000 g/ha, evaluated after 13 days
Method in brief: as §2

zea mays [9] = assay: as above; parameters: key: 0 = no damage to plant, 5 = total damage to plant; settings: Application post-emergence, rate 1000 g/ha, evaluated after 13 days
Method in brief: as §2

Abutilon theophrasti [10] = assay: as above; parameters: key: 0 = no damage to plant, 5 = total damage to plant; settings: Application post-emergence, rate 1000 g/ha, evaluated after 13 days
Method in brief: as §2

Setaria faberi [11] = assay: as above; parameters: key: 0 = no damage to plant, 5 = total damage to plant; settings: Application post-emergence, rate 1000 g/ha, evaluated after 13 days
Method in brief: as §2

Alopecurus myosuroides [12] = assay: as above; parameters: key: 0 = no damage to plant, 5 = total damage to plant; settings: Application post-emergence, rate 1000 g/ha, evaluated after 13 days
Method in brief: as §2

Structure (SMILES) | ECHCG damage score, application pre-emergence (Echinochloa crus-galli [1]) | AMARE damage score, application pre-emergence (Amaranthus retroflexus [2]) | ZEAMX damage score, application pre-emergence (zea mays [3]) | ABUTH damage score, application pre-emergence (Abutilon theophrasti [4]) | SETFA damage score, application pre-emergence (Setaria faberi [5]) | ALOMY damage score, application pre-emergence (Alopecurus myosuroides [6]) | ECHCG herbicidal damage score (Echinochloa crus-galli [7]) | AMARE herbicidal damage score (Amaranthus retroflexus [8]) | ZEAMX herbicidal damage score (zea mays [9]) | ABUTH herbicidal damage score (Abutilon theophrasti [10]) | SETFA herbicidal damage score (Setaria faberi [11]) | ALOMY herbicidal damage score (Alopecurus myosuroides [12])
COC1=C(C)C(O)N(c2cc(C(C)(F)F)c(C)nn2)C1=O (stereo not drawn) [BI24] | 4 | 5 | 3 | 5 | 4 | 4 | 5 | 5 | 3 | 5 | 5 | 4
C#CC(C)(C)NC(=O)c1ccc(N2C(=O)C(OC)=C(C)C2O)nn1 (stereo not drawn) [BI27] | 4 | 5 | 1 | 4 | 4 | 2 | 5 | 5 | 4 | 5 | 5 | 4
COC1=C(C)C(O)N(c2cc(C)c(Cl)nn2)C1=O (stereo not drawn) [BI29] | 3 | 3 | 1 | 0 | 2 | 3 | 3 | 5 | 0 | 1 | 4 | 2
COC1=C(C)C(O)N(c2cc(C(C)(C)C)c(-c3ccc(F)nc3)nn2)C1=O (stereo not drawn) [BI30] | 5 | 5 | 4 | 5 | 5 | 4 | 5 | 5 | 4 | 5 | 5 | 5
COC1=C(C)C(O)N(c2cc(C(C)(C)C)c(N3CC(F)(F)C3)nn2)C1=O (stereo not drawn) [BI31] | 4 | 5 | 3 | 5 | 5 | 4 | 5 | 5 | 4 | 5 | 5 | 5
COC1=C(C)C(O)N(c2cc(C)c(-c3cnn(C)c3)nn2)C1=O (stereo not drawn) [BI33] | 0 | 0 | 0 | 0 | 0 | 0 | 2 | 4 | 1 | 0 | 2 | 2
COC1=C(OC)C(O)N(c2cc(C)c(OC)nn2)C1=O (stereo not drawn) [BK1] | 4 | 5 | 2 | 4 | 4 | 4 | 5 | 5 | 3 | 5 | 5 | 4
COC1=C(OC)C(O)N(c2ccc(C(F)(F)F)nn2)C1=O (stereo not drawn) [BK2] | 0 | 0 | 0 | 0 | 0 | 0 | 1 | 1 | 0 | 1 | 1 | 1
CC1=C(Cl)C(=O)N(c2cc(C(C)(C)C)ncn2)C1O (stereo not drawn) [CF2] | 4 | 5 | 3 | 5 | 4 | 4 | 5 | 5 | 5 | 5 | 5 | 5
CC1=C(Cl)C(=O)N(c2cc(C(F)(F)F)ncn2)C1O (stereo not drawn) [CF3] | 4 | 3 | 1 | 5 | 3 | 3 | 5 | 3 | 4 | 5 | 5 | 5
CC1=C(Cl)C(=O)N(c2cc(C3CC3)ncn2)C1O (stereo not drawn) [CF4] | 4 | 5 | 1 | 5 | 5 | 3 | 5 | 5 | 2 | 5 | 5 | 5
CC1=C(Cl)C(=O)N(c2cc(OC(C)C)ncn2)C1O (stereo not drawn) [CF5] | 3 | 4 | 2 | 4 | 5 | 3 | 5 | 4 | 2 | 5 | 5 | 4
C/C=C/c1cc(N2C(=O)C(Cl)=C(C)C2O)ncn1 (stereo not drawn) [CF6] | 3 | 2 | 0 | 0 | 2 | 2 | 4 | 2 | 0 | 4 | 4 | 3
CCC1=C(Cl)C(=O)N(c2cc(C(C)(C)C#N)ncn2)C1O (stereo not drawn) [CF10] | 4 | 5 | 4 | 5 | 4 | 2 | 5 | 5 | 5 | 5 | 5 | 5
CCOC(=O)C(C)(C)c1cc(N2C(=O)C(Cl)=C(C)C2O)ncn1 (stereo not drawn) [CF11] | 5 | 4 | 2 | 5 | 4 | 2 | 5 | 2 | 3 | 5 | 5 | 5
CC1=C(Cl)C(=O)N(c2cc(C#N)ncn2)C1O (stereo not drawn) [CF13] | 0 | 0 | 1 | 0 | 0 | 0 | 1 | 2 | 1 | 2 | 3 | 3
